Test results from the NIST ThermoML archive (doi:10.1021/je200213h).
Numbers after ± are expanded uncertainties.

Columns and labels:
[1] = xn = mol fraction of the nth substance listed; details: 101 kPa, Liquid, Capillary tube (Ostwald / Ubbelohde) method
[2] = 101.33 kPa, Liquid, Capillary tube (Ostwald / Ubbelohde) method

CC(C)(C)Cl [2-chloro-2-methylpropane] + CCCCCCC
kinematic viscosity [m2/s], [1]
Details | 283.15 K | 298.15 K | 313.15 K
x2 = 0.0519 | 6.84e-07 ± 5.6e-09 | 5.603e-07 ± 4.7e-09 | 4.741e-07 ± 4.1e-09
x2 = 0.1021 | 6.722e-07 ± 5.5e-09 | 5.532e-07 ± 4.7e-09 | 4.711e-07 ± 4.1e-09
x2 = 0.2015 | 6.546e-07 ± 5.4e-09 | 5.438e-07 ± 4.6e-09 | 4.675e-07 ± 4e-09
x2 = 0.3006 | 6.44e-07 ± 5.3e-09 | 5.389e-07 ± 4.6e-09 | 4.666e-07 ± 4e-09
x2 = 0.3997 | 6.391e-07 ± 5.3e-09 | 5.38e-07 ± 4.6e-09 | 4.679e-07 ± 4.1e-09
x2 = 0.5027 | 6.376e-07 ± 5.3e-09 | 5.391e-07 ± 4.6e-09 | 4.699e-07 ± 4.1e-09
x2 = 0.6011 | 6.397e-07 ± 5.3e-09 | 5.434e-07 ± 4.6e-09 | 4.735e-07 ± 4.1e-09
x2 = 0.7014 | 6.441e-07 ± 5.3e-09 | 5.489e-07 ± 4.6e-09 | 4.78e-07 ± 4.1e-09
x2 = 0.8007 | 6.504e-07 ± 5.4e-09 | 5.572e-07 ± 4.7e-09 | 4.832e-07 ± 4.2e-09
x2 = 0.8966 | 6.591e-07 ± 5.4e-09 | 5.652e-07 ± 4.8e-09 | 4.894e-07 ± 4.2e-09
x2 = 0.9518 | 6.651e-07 ± 5.5e-09 | 5.706e-07 ± 4.8e-09 | 4.944e-07 ± 4.2e-09

CC(C)CCl [1-chloro-2-methylpropane]
[2]
Details | kinematic viscosity [m2/s]
283.15 K | 5.8e-07 ± 4.9e-09
298.15 K | 4.929e-07 ± 4.2e-09
313.15 K | 4.363e-07 ± 3.8e-09

CCC(C)CC [3-methylpentane]
[2]
Details | kinematic viscosity [m2/s]
283.15 K | 4.928e-07 ± 4.2e-09
298.15 K | 4.366e-07 ± 3.8e-09
313.15 K | 3.881e-07 ± 3.5e-09

CCCCCCC [heptane]
[2]
Details | kinematic viscosity [m2/s]
283.15 K | 6.697e-07 ± 5.5e-09
298.15 K | 5.754e-07 ± 4.8e-09
313.15 K | 4.986e-07 ± 4.3e-09

CC(C)(C)Cl [2-chloro-2-methylpropane]
[2]
Details | kinematic viscosity [m2/s]
283.15 K | 6.992e-07 ± 5.7e-09
298.15 K | 5.696e-07 ± 4.8e-09
313.15 K | 4.77e-07 ± 4.1e-09

CCCCCl [1-chlorobutane]
[2]
Details | kinematic viscosity [m2/s]
283.15 K | 5.564e-07 ± 4.7e-09
298.15 K | 4.785e-07 ± 4.1e-09
313.15 K | 4.216e-07 ± 3.7e-09

CCC(C)Cl (stereo not given) [2-chlorobutane] + CCCCCCC
kinematic viscosity [m2/s], [1]
Details | 283.15 K | 298.15 K | 313.15 K
x1 = 0.0506 | 5.287e-07 ± 4.5e-09 | 4.649e-07 ± 4e-09 | 4.086e-07 ± 3.6e-09
x1 = 0.0989 | 5.334e-07 ± 4.5e-09 | 4.686e-07 ± 4.1e-09 | 4.121e-07 ± 3.6e-09
x1 = 0.2012 | 5.44e-07 ± 4.6e-09 | 4.78e-07 ± 4.1e-09 | 4.202e-07 ± 3.7e-09
x1 = 0.3016 | 5.558e-07 ± 4.7e-09 | 4.876e-07 ± 4.2e-09 | 4.283e-07 ± 3.8e-09
x1 = 0.3997 | 5.677e-07 ± 4.8e-09 | 4.978e-07 ± 4.3e-09 | 4.37e-07 ± 3.8e-09
x1 = 0.4984 | 5.812e-07 ± 4.9e-09 | 5.087e-07 ± 4.3e-09 | 4.461e-07 ± 3.9e-09
x1 = 0.5994 | 5.966e-07 ± 5e-09 | 5.206e-07 ± 4.4e-09 | 4.558e-07 ± 4e-09
x1 = 0.6994 | 6.128e-07 ± 5.1e-09 | 5.331e-07 ± 4.5e-09 | 4.652e-07 ± 4e-09
x1 = 0.7996 | 6.304e-07 ± 5.2e-09 | 5.467e-07 ± 4.6e-09 | 4.757e-07 ± 4.1e-09
x1 = 0.9006 | 6.496e-07 ± 5.4e-09 | 5.609e-07 ± 4.7e-09 | 4.866e-07 ± 4.2e-09
x1 = 0.9503 | 6.6e-07 ± 5.5e-09 | 5.684e-07 ± 4.8e-09 | 4.927e-07 ± 4.2e-09

CCC(C)(C)C [2,2-dimethylbutane]
[2]
Details | kinematic viscosity [m2/s]
283.15 K | 6.234e-07 ± 5.2e-09
298.15 K | 5.206e-07 ± 4.4e-09
313.15 K | 4.579e-07 ± 4e-09

CC(C)(C)Cl [2-chloro-2-methylpropane] + CCC(C)CC
kinematic viscosity [m2/s], [1]
Details | 283.15 K | 298.15 K | 313.15 K
x2 = 0.0496 | 6.755e-07 ± 5.6e-09 | 5.548e-07 ± 4.7e-09 | 4.681e-07 ± 4.1e-09
x2 = 0.0995 | 6.538e-07 ± 5.4e-09 | 5.4e-07 ± 4.6e-09 | 4.576e-07 ± 4e-09
x2 = 0.2046 | 6.148e-07 ± 5.1e-09 | 5.14e-07 ± 4.4e-09 | 4.4e-07 ± 3.8e-09
x2 = 0.3023 | 5.848e-07 ± 4.9e-09 | 4.937e-07 ± 4.2e-09 | 4.256e-07 ± 3.7e-09
x2 = 0.405 | 5.592e-07 ± 4.7e-09 | 4.767e-07 ± 4.1e-09 | 4.14e-07 ± 3.7e-09
x2 = 0.5064 | 5.394e-07 ± 4.6e-09 | 4.637e-07 ± 4e-09 | 4.051e-07 ± 3.6e-09
x2 = 0.6033 | 5.235e-07 ± 4.5e-09 | 4.536e-07 ± 3.9e-09 | 3.984e-07 ± 3.5e-09
x2 = 0.7038 | 5.114e-07 ± 4.4e-09 | 4.462e-07 ± 3.9e-09 | 3.933e-07 ± 3.5e-09
x2 = 0.8012 | 5.026e-07 ± 4.3e-09 | 4.41e-07 ± 3.9e-09 | 3.9e-07 ± 3.5e-09
x2 = 0.9018 | 4.964e-07 ± 4.3e-09 | 4.377e-07 ± 3.8e-09 | 3.881e-07 ± 3.5e-09
x2 = 0.9514 | 4.946e-07 ± 4.2e-09 | 4.372e-07 ± 3.8e-09 | 3.88e-07 ± 3.5e-09

CCC(C)Cl (stereo not given) [2-chlorobutane] + CCCCCC
kinematic viscosity [m2/s], [1]
Details | 283.15 K | 298.15 K | 313.15 K
x1 = 0.0509 | 5.186e-07 ± 4.4e-09 | 4.579e-07 ± 4e-09 | 4.034e-07 ± 3.6e-09
x1 = 0.1002 | 5.147e-07 ± 4.4e-09 | 4.548e-07 ± 4e-09 | 4.012e-07 ± 3.6e-09
x1 = 0.1802 | 5.09e-07 ± 4.3e-09 | 4.501e-07 ± 3.9e-09 | 3.98e-07 ± 3.5e-09
x1 = 0.3029 | 5.025e-07 ± 4.3e-09 | 4.448e-07 ± 3.9e-09 | 3.948e-07 ± 3.5e-09
x1 = 0.4045 | 4.989e-07 ± 4.3e-09 | 4.42e-07 ± 3.9e-09 | 3.932e-07 ± 3.5e-09
x1 = 0.4991 | 4.975e-07 ± 4.3e-09 | 4.408e-07 ± 3.9e-09 | 3.926e-07 ± 3.5e-09
x1 = 0.5974 | 4.968e-07 ± 4.3e-09 | 4.401e-07 ± 3.8e-09 | 3.926e-07 ± 3.5e-09
x1 = 0.6992 | 4.982e-07 ± 4.3e-09 | 4.406e-07 ± 3.9e-09 | 3.939e-07 ± 3.5e-09
x1 = 0.7996 | 5.007e-07 ± 4.3e-09 | 4.419e-07 ± 3.9e-09 | 3.961e-07 ± 3.5e-09
x1 = 0.8981 | 5.055e-07 ± 4.3e-09 | 4.447e-07 ± 3.9e-09 | 3.993e-07 ± 3.6e-09
x1 = 0.9477 | 5.086e-07 ± 4.3e-09 | 4.465e-07 ± 3.9e-09 | 4.015e-07 ± 3.6e-09
